Results on 90 compounds are retold here after ChEMBL document CHEMBL3714749, “Quinoxaline derivatives as gpr6 modulators” (2014).

In this experiment the target is G-protein coupled receptor 6 (Homo sapiens, UniProt P46095). Nature of the experiment: Activity at GPR6 (unknown origin) expressed in CHOK1 cells assessed as inhibition of constitutive cAMP activity incubated for 45 mins by HTRF based cAMP detection assay. Type of experiment: functional, cell-based, CHO-K1. (In general: TR-FRET usually uses a lanthanide donor and a delayed reading to cut background.)
Sequence of G-protein coupled receptor 6 (P46095 whole entry): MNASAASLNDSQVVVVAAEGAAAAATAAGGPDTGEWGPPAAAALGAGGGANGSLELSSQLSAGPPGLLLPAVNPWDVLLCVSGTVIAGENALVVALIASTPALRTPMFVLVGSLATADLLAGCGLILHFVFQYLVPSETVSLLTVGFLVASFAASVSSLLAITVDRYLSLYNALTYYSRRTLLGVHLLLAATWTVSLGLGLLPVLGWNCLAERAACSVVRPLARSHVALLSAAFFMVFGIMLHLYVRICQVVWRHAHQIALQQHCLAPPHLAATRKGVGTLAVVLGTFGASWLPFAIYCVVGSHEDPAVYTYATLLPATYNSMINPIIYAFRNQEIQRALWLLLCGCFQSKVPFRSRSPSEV
For the compound `N#Cc1ccc2nc(NCCC(F)(F)F)c(N3CCC(Oc4ccc(F)cc4F)CC3)nc2c1`, the concentration for half-maximal inhibition (IC50) came out at 0.16 µM. Turning to `CC(C)Nc1nc2ccc(C#N)cc2nc1N1CCC(C(F)c2cc(F)ccc2F)CC1` (stereo not given), the half-maximal inhibitory concentration (IC50) is 0.098 µM.

With `Clc1ccc(Cl)c(CN2CCN(c3nc4cccc(Br)c4nc3NC3CC3)CC2)c1`, the IC50 was 1.64 µM.

As to `COc1ccccc1C(=O)C1CCN(c2nc3cnccc3nc2NC2CC2)CC1`, the IC50 is 1.92 µM. For the compound `O=C(c1c(F)cc(Cl)cc1F)C1CCN(c2nc3cnccc3nc2NC2CC2)CC1`, the IC50 amounted to 0.2 µM.

With `N#Cc1cccc2nc(N3CCN(Cc4cc(Cl)ccc4Cl)CC3)c(NC3CC3)nc12`, the 50% inhibitory concentration (IC50) is 1.49 µM. Regarding `N#Cc1ccc2nc(NC3CCC3)c(N3CCN(C(=O)c4ccc(Cl)cc4)CC3)nc2c1`, the IC50 turned out to be 0.3 µM.

For `N#Cc1ccc2nc(NC3CC3)c(N3CCN(S(=O)(=O)c4ccc(C(F)(F)F)cc4Cl)CC3)nc2c1`, the IC50 was determined as 1.3 µM.

`Fc1ccc(F)c(CN2CCN(c3nc4ccncc4nc3NC3CC3)CC2)c1`: the half-inhibitory concentration (IC50) turned out to be 0.14 µM. Take `Cc1ccccc1C(=O)C1CCN(c2nc3cnccc3nc2NC2CC2)CC1`: the IC50 came to 5.78 µM. In the case of `N#Cc1ccc2nc(NC3CC3)c(N3CCN(Cc4cc(F)ccc4F)CC3)nc2c1`, the IC50 was 0.38 µM.

For the compound `N#Cc1cccc2nc(NC3CC3)c(N3CCN(Cc4cc(Cl)ccc4Cl)CC3)nc12`, the half-maximal inhibitory concentration (IC50) amounted to 0.65 µM.

For `N#Cc1ccc2nc(N3CCN(Cc4cc(Cl)ccc4Cl)CC3)c(Nc3cccnc3)nc2c1`, the IC50 turned out to be 0.44 µM.

`N#Cc1ccc2nc(NC3CC3)c(N3CCN(S(=O)(=O)c4ccc(Br)s4)CC3)nc2c1`: the concentration for half-maximal inhibition (IC50) is 0.42 µM.

With `Fc1ccc(Cl)cc1CN1CCN(c2nc3cnccc3nc2NC2CC2)CC1`, the IC50 came out at 0.029 µM. As to `O=S(=O)(c1ccccc1)N1CCN(c2nc3ccccc3nc2Nc2cccnc2)CC1`, the concentration for half-maximal inhibition (IC50) came to 4.63 µM.

As for `N#Cc1ccc2nc(NC3CC3)c(N3CCC(Cn4cc(Cl)ccc4=O)CC3)nc2c1`, the IC50 worked out at 0.93 µM.

As for `Fc1ccc(CC2CCN(c3nc4ccncc4nc3NC3CC3)CC2)c(F)c1`, the half-inhibitory concentration (IC50) turned out to be 0.027 µM. As for `COCCNc1nc2ccc(C#N)cc2nc1N1CCC(C(F)c2ccc(F)cc2F)CC1` (stereo not given), the figure is 0.34 µM; as for `Cc1cc2nc(NC3CC3)c(N3CCC(C(F)c4ccc(F)cc4F)CC3)nc2cn1` (stereo not given), 0.007 µM. As for `CCNc1nc2cnccc2nc1N1CCC(Oc2ccc(OC)cc2F)CC1`, the figure is 0.039 µM. As for `O=C(c1cc(Cl)ccc1Cl)N1CCN(c2nc3ccccc3nc2NC2CC2)CC1`, the figure is 6.64 µM; as for `FC(F)Oc1ccc(Cl)cc1CN1CCN(c2nc3cnccc3nc2NC2CC2)CC1`, 0.27 µM; as for `N#Cc1cc2nc(NC3CC3)c(N3CCC(Cc4ccc(F)cc4F)CC3)nc2cn1`, 0.015 µM. In the case of `COc1ccc(OC2CCN(c3nc4cnncc4nc3NC3CC3)CC2)c(F)c1`, the half-inhibitory concentration (IC50) came to 0.02 µM.

Regarding `COCCNc1nc2ccc(C#N)cc2nc1N1CCC(Cc2ccc(F)cc2F)CC1`, the IC50 came out at 0.25 µM. The same measure for `Cc1nccc2nc(NC3CC3)c(N3CCC(C(F)(F)c4cc(F)ccc4F)CC3)nc12`: 0.045 µM; for `Cc1nccc2nc(NC3CC3)c(N3CCC(Cn4ccc(F)cc4=O)CC3)nc12`: 0.38 µM; for `O=C(c1c(F)cccc1Cl)C1CCN(c2nc3cnccc3nc2NC2CC2)CC1`: 4.9 µM. `Clc1ccc(Cl)c(CN2CCN(c3nc4ccccc4nc3Nc3ccccn3)CC2)c1`: the IC50 was 3.29 µM. The same measure for `CC(C)Nc1nc2cc(C(=O)N(C)C)ncc2nc1N1CCN(Cc2ccc(F)cc2F)CC1`: 0.04 µM; for `N#Cc1cc2nc(NC3CC3)c(N3CCC([C@H](F)c4ccc(F)cc4F)CC3)nc2cn1`: 0.011 µM. Take `N#Cc1ccc2nc(NC3CC3)c(N3CCN(S(=O)(=O)c4cccc(Cl)c4)CC3)nc2c1`: the concentration for half-maximal inhibition (IC50) was 5.62 µM.

`O=C(c1cccnc1Br)C1CCN(c2nc3cnccc3nc2NC2CC2)CC1`: the IC50 is 2.74 µM.

As to `N#Cc1cccc(S(=O)(=O)N2CCN(c3nc4cc(C#N)ccc4nc3NC3CC3)CC2)c1`, the IC50 turned out to be 2.54 µM.

For `Fc1cc(F)c(OC2CCN(c3nc4cnccc4nc3NC3CC3)CC2)c(F)c1`, the 50% inhibitory concentration (IC50) came to 0.17 µM. As for `COc1ccc(OC2CCN(c3nc4ccncc4nc3NC(C)C)CC2)c(F)c1`, the figure is 0.012 µM. In the case of `Fc1ccc(OC2CCN(c3nc4cnncc4nc3NC3CC3)CC2)c(F)c1`, the IC50 turned out to be 0.018 µM.

For `N#Cc1ccc2nc(NC3CC3)c(N3CCC(Oc4ccc(F)cc4F)CC3)nc2c1`, the IC50 was found to be 0.09 µM.

`N#Cc1ccc2nc(NCCF)c(N3CCN(C(=O)c4ccc(Cl)cc4)CC3)nc2c1`: the half-inhibitory concentration (IC50) was determined as 0.96 µM. For `CSc1ccc(F)c(C(=O)C2CCN(c3nc4cnccc4nc3NC3CC3)CC2)c1`, the half-inhibitory concentration (IC50) amounted to 0.478 µM.

As to `Cc1ccc(C)c(CN2CCN(c3nc4cnccc4nc3NC3CC3)CC2)c1`, the IC50 amounted to 0.38 µM. As for `CC[C@H](C)Nc1nc2cnncc2nc1N1CCC(Oc2ccc(OC)cc2F)CC1`, the figure is 0.021 µM; as for `Fc1ccc(F)c(C(F)C2CCN(c3nc4cnccc4nc3NC3CC3)CC2)c1` (stereo not given), 0.02 µM. `O=C(c1cc(F)ccc1Cl)C1CCN(c2nc3cnccc3nc2NC2CC2)CC1`: the concentration for half-maximal inhibition (IC50) stood at 0.062 µM. Take `Fc1ccc(C(F)C2CCN(c3nc4cnc(Br)cc4nc3NC3CC3)CC2)c(F)c1` (stereo not given): the IC50 turned out to be 0.029 µM. As for `Fc1cc(F)c(CN2CCN(c3nc4ccncc4nc3Nc3cccnc3)CC2)cc1F`, the figure is 0.4 µM.

As for `N#Cc1ccc2nc(NC3CC(=O)C3)c(N3CCN(Cc4cc(Cl)ccc4Cl)CC3)nc2c1`, the IC50 amounted to 0.097 µM. As for `COc1ccc(OC2CCN(c3nc4ccncc4nc3NC3CC3)CC2)c(F)c1`, the figure is 0.044 µM. As to `O=C(c1ccccc1Cl)C1CCN(c2nc3cnccc3nc2NC2CC2)CC1`, the half-maximal inhibitory concentration (IC50) amounted to 0.067 µM. The same measure for `Cc1cc(S(=O)(=O)N2CCN(c3nc4cc(C#N)ccc4nc3NC3CC3)CC2)c(C)cc1Cl`: 0.45 µM; for `CN(C)C(=O)c1cc2nc(NCC(F)F)c(N3CCC(Oc4ccc(F)cc4F)CC3)nc2cn1`: 0.065 µM. The same measure for `Cc1cc2nc(NC3CC3)c(N3CCC(S(=O)(=O)c4ccc(F)cc4)CC3)nc2cn1`: 0.093 µM; for `Cc1cccc(CN2CCN(c3nc4ccccc4nc3NC3CC3)CC2)c1C`: 3.64 µM; for `COCCNc1nc2ccncc2nc1N1CCC(Cc2ccc(F)cc2F)CC1`: 0.03 µM. With `O=C(c1ccc(C(F)F)cc1)N1CCN(c2nc3cnccc3nc2NC2CC2)CC1`, the IC50 came to 2.65 µM. In the case of `Fc1ccc(CC2CCN(c3nc4cc(F)ccc4nc3NC3CC3)CC2)c(F)c1`, the 50% inhibitory concentration (IC50) is 0.072 µM. Regarding `Cc1nccc2nc(NC3CC3)c(N3CCC(C(F)c4ccc(F)cc4F)CC3)nc12` (stereo not given), the IC50 is 0.009 µM.

For the compound `O=C(c1cc(Cl)ccc1F)C1CCN(c2nc3cnccc3nc2NC2CC2)CC1`, the IC50 was determined as 0.035 µM.

Turning to `Oc1ccc(OC2CCN(c3nc4ccncc4nc3NC3CC3)CC2)c(F)c1`, the half-maximal inhibitory concentration (IC50) turned out to be 0.054 µM. Regarding `O=C(c1cccc(Cl)c1)C1CCN(c2nc3cnccc3nc2NC2CC2)CC1`, the half-maximal inhibitory concentration (IC50) came out at 11 µM.

For the compound `Clc1ccc(Cl)c(CN2CCN(c3nc4cnccc4nc3NC3CC3)CC2)c1`, the 50% inhibitory concentration (IC50) came out at 0.032 µM.

Regarding `Fc1ccc([C@H](F)C2CCN(c3nc4cnncc4nc3NC3CC3)CC2)c(F)c1`, the IC50 stood at 0.022 µM.

As to `O=C(c1ccc(Cl)c(Cl)c1)N1CCN(c2nc3ccccc3nc2NC2CC2)CC1`, the IC50 turned out to be 79.6 µM.

Take `CC(C)OCCNc1nc2ccccc2nc1N1CCN(Cc2cc(Cl)ccc2Cl)CC1`: the 50% inhibitory concentration (IC50) was 3.33 µM. As for `Fc1ccc(CC2CCN(c3nc4cnc(Cl)cc4nc3NC3CC3)CC2)c(F)c1`, the figure is 0.031 µM; as for `Fc1ccc(CC2CCN(c3nc4ccncc4nc3NCC(F)F)CC2)c(F)c1`, 0.078 µM; as for `CC(C)Nc1nc2ccc(C#N)cc2nc1N1CCC([C@@H](F)c2ccc(F)cc2F)CC1`, 0.049 µM. For the compound `Fc1ccc(CC2CCN(c3nc4cc(F)c(F)cc4nc3NC3CC3)CC2)c(F)c1`, the concentration for half-maximal inhibition (IC50) was determined as 0.14 µM. Regarding `O=C(c1cccs1)C1CCN(c2nc3cnccc3nc2NC2CC2)CC1`, the IC50 amounted to 6.75 µM. As for `N#Cc1ccc2nc(NC3CC3)c(N3CCN(S(=O)(=O)c4cc(C(F)(F)F)ccc4Cl)CC3)nc2c1`, the half-inhibitory concentration (IC50) was determined as 1.36 µM. Turning to `Clc1ccc(Cl)c(CN2CCN(c3nc4ccccc4nc3NC3CCOCC3)CC2)c1`, the IC50 amounted to 4.07 µM.

For `O=C(c1ccsc1)C1CCN(c2nc3cnccc3nc2NC2CC2)CC1`, the concentration for half-maximal inhibition (IC50) was 2.29 µM. As for `N#Cc1ccccc1OC1CCN(c2nc3cnccc3nc2NC2CC2)CC1`, the figure is 2.88 µM; as for `CC(C)Nc1nc2cc(C(=O)N(C)C)ncc2nc1N1CCC(Oc2ccc(Cl)cc2F)CC1`, 0.006 µM. As for `O=S(=O)(c1ccccc1)N1CCN(c2nc3cc(F)ccc3nc2NC2CC2)CC1`, the 50% inhibitory concentration (IC50) was 9.44 µM. The same measure for `CC(C)Nc1nc2ccncc2nc1N1CCC(C(F)c2ccc(F)cc2F)CC1` (stereo not given): 0.029 µM.

As for `Cc1nccc2nc(NC3CC3)c(N3CCC(Cc4ccc(F)cc4F)CC3)nc12`, the IC50 amounted to 0.002 µM. Turning to `CC(C)Nc1nc2cc(C(=O)N(C)C)ncc2nc1N1CCC(C(=O)c2cc(F)cc(F)c2)CC1`, the concentration for half-maximal inhibition (IC50) was 0.016 µM. As for `CC(C)(C)Nc1nc2cc(C#N)ncc2nc1N1CCC(Oc2ccc(F)cc2F)CC1`, the figure is 0.538 µM; as for `COc1cccc(CN2CCN(c3nc4cnncc4nc3NC(C)C)CC2)c1`, 0.044 µM; as for `CSc1ccc(OC2CCN(c3nc4cnccc4nc3NC3CC3)CC2)cc1`, 0.146 µM. For the compound `COc1ccc(OC2CCN(c3nc4cnccc4nc3NC3CC3)CC2)cc1`, the IC50 stood at 0.19 µM.

As to `O=C(c1ccccc1Br)C1CCN(c2nc3cnccc3nc2NC2CC2)CC1`, the IC50 was found to be 0.078 µM.

In the case of `Clc1ccc(Cl)c(CN2CCN(c3nc4ccncc4nc3NC3CC3)CC2)c1`, the IC50 worked out at 0.056 µM. The same measure for `COc1ccc(CN2CCN(c3nc4cnc(C(=O)N(C)C)cc4nc3NC3CC3)CC2)c(F)c1`: 0.939 µM; for `Clc1ccc(Cl)c(CN2CCN(c3nc4ccccc4nc3Nc3cccnn3)CC2)c1`: 1.67 µM; for `N#Cc1cccc(C(=O)C2CCN(c3nc4cnccc4nc3NC3CC3)CC2)c1`: 7.21 µM. The same measure for `CCOc1ccc(OC2CCN(c3nc4cnccc4nc3NC3CC3)CC2)cc1`: 1.02 µM; for `N#Cc1ccc2nc(NC3CC3)c(N3CCN(S(=O)(=O)c4ccccc4C#N)CC3)nc2c1`: 4.34 µM.

For orientation: IC50 means the concentration that gives 50% inhibition.
